Reference: patent US20100144733A1, “Compounds, compositions and methods comprising heteroaromatic derivatives” (Institute for OneWorld Health, priority 2008, published 2010)
Read-outs that look alike come from different tables or passages of the source.

Molecular target: T1, CFTR (Homo sapiens, UniProt P13569)
T1 construct: endogenous in cells; host or cells: T84 human colonic cells (ECACC)
Experiment: T84 assay (FLIPR membrane potential dye, forskolin/IBMX-stimulated CFTR channel activity)
Format: cell-based
In short: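 Fluorescence from a membrane potential dye in T84 monolayers (HBSS with 10 mM Hepes) is followed each second for 150 s. Cells are exposed to test compound during the 45 min dye loading, then challenged with forskolin (10 μM) and IBMX (100 μM) to open CFTR. Inhibitors suppress the depolarization-driven fluorescence increase.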

[1] = imidazole and triazole-containing compounds (Tables 13, 14, 14′), read-out: IC50 (μM) (T84 assay)
[2] = oxadiazole-containing compounds (a series), average of at least 2 runs unless annotated n = 1, read-out: IC50

T1 sequence (P13569 whole entry): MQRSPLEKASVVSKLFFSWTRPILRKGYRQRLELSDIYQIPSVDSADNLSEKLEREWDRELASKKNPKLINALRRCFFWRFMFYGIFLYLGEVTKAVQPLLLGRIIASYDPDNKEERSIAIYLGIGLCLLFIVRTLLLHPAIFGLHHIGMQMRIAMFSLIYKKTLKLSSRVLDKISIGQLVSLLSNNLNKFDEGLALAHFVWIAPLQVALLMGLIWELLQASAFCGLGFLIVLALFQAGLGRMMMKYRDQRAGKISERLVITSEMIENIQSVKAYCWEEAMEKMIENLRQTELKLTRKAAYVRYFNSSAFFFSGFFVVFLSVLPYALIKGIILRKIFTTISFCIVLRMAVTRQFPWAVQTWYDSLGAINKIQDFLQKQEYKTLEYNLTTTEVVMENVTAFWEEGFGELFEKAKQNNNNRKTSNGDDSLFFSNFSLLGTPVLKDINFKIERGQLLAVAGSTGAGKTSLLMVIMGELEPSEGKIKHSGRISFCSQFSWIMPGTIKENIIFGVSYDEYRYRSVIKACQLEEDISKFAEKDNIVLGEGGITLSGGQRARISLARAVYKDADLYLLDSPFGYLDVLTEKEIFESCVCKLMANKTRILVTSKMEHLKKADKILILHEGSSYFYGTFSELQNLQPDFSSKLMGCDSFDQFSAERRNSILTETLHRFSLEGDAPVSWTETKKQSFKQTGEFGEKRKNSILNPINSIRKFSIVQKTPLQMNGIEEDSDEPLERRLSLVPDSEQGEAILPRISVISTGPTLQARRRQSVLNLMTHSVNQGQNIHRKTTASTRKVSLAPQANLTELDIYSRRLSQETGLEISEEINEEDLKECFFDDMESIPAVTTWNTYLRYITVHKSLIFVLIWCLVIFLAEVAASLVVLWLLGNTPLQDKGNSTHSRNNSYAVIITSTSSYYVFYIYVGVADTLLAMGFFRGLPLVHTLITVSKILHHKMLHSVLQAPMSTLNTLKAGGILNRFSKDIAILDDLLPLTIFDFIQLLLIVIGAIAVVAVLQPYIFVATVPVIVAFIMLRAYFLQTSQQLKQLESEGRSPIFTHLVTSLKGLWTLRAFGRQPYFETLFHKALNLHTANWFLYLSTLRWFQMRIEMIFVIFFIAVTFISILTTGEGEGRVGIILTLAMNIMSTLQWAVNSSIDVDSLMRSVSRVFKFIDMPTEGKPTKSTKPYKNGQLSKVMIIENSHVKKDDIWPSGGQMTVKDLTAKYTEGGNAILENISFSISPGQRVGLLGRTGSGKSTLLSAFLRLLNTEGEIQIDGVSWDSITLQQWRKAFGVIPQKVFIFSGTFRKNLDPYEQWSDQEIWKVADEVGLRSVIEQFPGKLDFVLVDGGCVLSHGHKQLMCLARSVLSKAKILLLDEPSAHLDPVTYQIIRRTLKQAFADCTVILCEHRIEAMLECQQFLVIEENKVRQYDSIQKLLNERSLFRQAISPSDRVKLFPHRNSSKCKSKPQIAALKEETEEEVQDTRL

| IC50 [1] | IC50 [2] | Compound | further results |
| --- | --- | --- | --- |
|  |  | N#Cc1ccc(COc2ncc(-c3cc(Br)c(O)c(Br)c3)nn2)cc1 [101e, 4-((6-(3,5-dibromo-4-hydroxyphenyl)-1,2,4-triazin-3-yloxy)methyl)benzonitrile] | IC50 (triazine-containing compounds (Table 8 and 8′), read-out: IC50): 3.49 µM |
| 0.76 µM |  | C=CCN(Cc1ccc(C(C)C)cc1)C(=O)c1ncn(-c2cc(Cl)c(O)c(Cl)c2)n1 [101i, N-allyl-1-(3,5-dichloro-4-hydroxyphenyl)-N-(4-isopropylbenzyl)-1H-1,2,4-triazole-3-carboxamide] |  |
|  | 10.1 µM | O=C(NCc1cccc(F)c1F)c1noc(-c2cc(Cl)c(O)c(Cl)c2)n1 [102a, 5-(3,5-dichloro-4-hydroxyphenyl)-N-(2,3-difluorobenzyl)-1,2,4-oxadiazole-3-carboxamide] |  |
|  | 9.64 µM | O=C(NCc1c(F)cccc1F)c1noc(-c2cc(Cl)c(O)c(Cl)c2)n1 [103a, 5-(3,5-dichloro-4-hydroxyphenyl)-N-(2,6-difluorobenzyl)-1,2,4-oxadiazole-3-carboxamide] |  |
|  | 23 µM | O=C(Nc1ccc(Oc2ccccc2)cc1)c1nc(-c2cc(Br)c(O)c(Br)c2)no1 [104a, 3-(3,5-dibromo-4-hydroxyphenyl)-N-(4-phenoxyphenyl)-1,2,4-oxadiazole-5-carboxamide] |  |
|  | 23.1 µM | CC(C)(C)CCNC(=O)c1nc(-c2cc(Br)c(O)c(Br)c2)no1 [105a, 3-(3,5-dibromo-4-hydroxyphenyl)-N-(3,3-dimethylbutyl)-1,2,4-oxadiazole-5-carboxamide] |  |
|  | 24.6 µM | CN(Cc1cccc(C(F)(F)F)c1)C(=O)c1noc(-c2cc(Cl)c(OCC(=O)O)c(Cl)c2)n1 [106a, 2-(2,6-dichloro-4-(3-(methyl(3-(trifluoromethyl)benzyl)carbamoyl)-1,2,4-oxadiazol-5-yl)phenoxy)acetic acid] |  |
|  | 19.2 µM | O=C(O)COc1c(Cl)cc(-c2nc(C(=O)NCc3ccc(Oc4ccccc4)cc3)no2)cc1Cl [107a, 2-(2,6-dichloro-4-(3-(4-phenoxybenzylcarbamoyl)-1,2,4-oxadiazol-5-yl)phenoxy)acetic acid] |  |
|  | 2.79 µM | CCCN(Cc1cccc(C(F)(F)F)c1)C(=O)c1nc(-c2cc(Cl)c(O)c(Cl)c2)no1 [108a, 3-(3,5-dichloro-4-hydroxyphenyl)-N-propyl-N-(3-(trifluoromethyl)benzyl)-1,2,4-oxadiazole-5-carboxamide] |  |
|  | 5.31 µM | C#CCN(Cc1cccc(C(F)(F)F)c1)C(=O)c1nc(-c2cc(Cl)c(O)c(Cl)c2)no1 [109a, 3-(3,5-dichloro-4-hydroxyphenyl)-N-(prop-2-ynyl)-N-(3-(trifluoromethyl)benzyl)-1,2,4-oxadiazole-5-carboxamide] |  |
|  | 3.76 µM | CCOCCN(Cc1cccc(C(F)(F)F)c1)C(=O)c1nc(-c2cc(Cl)c(O)c(Cl)c2)no1 [110a, 3-(3,5-dichloro-4-hydroxyphenyl)-N-(2-ethoxyethyl)-N-(3-(trifluoromethyl)benzyl)-1,2,4-oxadiazole-5-carboxamide] |  |
|  | 6.14 µM | COCCOCCN(Cc1cccc(C(F)(F)F)c1)C(=O)c1nc(-c2cc(Cl)c(O)c(Cl)c2)no1 [111a, 3-(3,5-dichloro-4-hydroxyphenyl)-N-(2-(2-methoxyethoxy)ethyl)-N-(3-(trifluoromethyl)benzyl)-1,2,4-oxadiazole-5-carboxamide] |  |
| 9.17 µM |  | COCCOCCOCCOCCN(Cc1ccc(Cl)c(Cl)c1)C(=O)c1ncn(-c2cc(Cl)c(O)c(Cl)c2)n1 [111i, 1-(3,5-dichloro-4-hydroxyphenyl)-N-(3,4-dichlorobenzyl)-N-(2,5,8,11-tetraoxatridecan-13-yl)-1H-1,2,4-triazole-3-carboxamide] |  |
|  | 15.7 µM | O=C(NCc1cc(F)ccc1F)c1noc(-c2cc(Cl)c(O)c(Cl)c2)n1 [113a, 5-(3,5-dichloro-4-hydroxyphenyl)-N-(2,5-difluorobenzyl)-1,2,4-oxadiazole-3-carboxamide] |  |
| 23.5 µM |  | COCCOCCOCCN(Cc1cccc(OC(F)(F)F)c1)C(=O)c1ncn(-c2cc(Cl)c(O)c(Cl)c2)n1 [113i, 1-(3,5-dichloro-4-hydroxyphenyl)-N-(2-(2-(2-methoxyethoxy)ethoxy)ethyl)-N-(3-(trifluoromethoxy)benzyl)-1H-1,2,4-triazole-3-carboxamide] |  |
|  | 7.9 µM | O=C(NCc1ccc(F)cc1F)c1noc(-c2cc(Cl)c(O)c(Cl)c2)n1 [114a, 5-(3,5-dichloro-4-hydroxyphenyl)-N-(2,4-difluorobenzyl)-1,2,4-oxadiazole-3-carboxamide] |  |
|  | 11.8 µM | O=C(NCc1ccc(F)cc1)c1noc(-c2cc(Cl)c(O)c(Cl)c2)n1 [115a, 5-(3,5-dichloro-4-hydroxyphenyl)-N-(4-fluorobenzyl)-1,2,4-oxadiazole-3-carboxamide] |  |

| IC50 [1] | IC50 [2] | Compound | further results |
| --- | --- | --- | --- |
| 2.8 µM |  | COCCOCCOCCOCCN(Cc1cccc(OC(F)(F)F)c1)C(=O)c1ncn(-c2cc(Cl)c(O)c(Cl)c2)n1 [115i, 1-(3,5-dichloro-4-hydroxyphenyl)-N-(2,5,8,11-tetraoxatridecan-13-yl)-N-(3-(trifluoromethoxy)benzyl)-1H-1,2,4-triazole-3-carboxamide] |  |
|  | 18 µM | O=C(NCc1cccc(F)c1)c1noc(-c2cc(Cl)c(O)c(Cl)c2)n1 [116a, 5-(3,5-dichloro-4-hydroxyphenyl)-N-(3-fluorobenzyl)-1,2,4-oxadiazole-3-carboxamide] |  |
| 2.8 µM |  | CC(C)(C)c1ccc(CN(CCOCCOCCOCCOCCOCCOCc2ccccc2)C(=O)c2ncn(-c3cc(Cl)c(O)c(Cl)c3)n2)cc1 [116i, N-(4-tert-butylbenzyl)-1-(3,5-dichloro-4-hydroxyphenyl)-N-(1-phenyl-2,5,8,11,14,17-hexaoxanonadecan-19-yl)-1H-1,2,4-triazole-3-carboxamide] |  |
|  | 19.9 µM | CN(Cc1ccc(F)c(F)c1)C(=O)c1noc(-c2cc(Cl)c(O)c(Cl)c2)n1 [117a, 5-(3,5-dichloro-4-hydroxyphenyl)-N-(3,4-difluorobenzyl)-N-methyl-1,2,4-oxadiazole-3-carboxamide] |  |
| 21.4 µM |  | COCCOCCOCCOCCOCCOCCOCCOCCN(Cc1ccc(C(C)(C)C)cc1)C(=O)c1ncn(-c2cc(Cl)c(O)c(Cl)c2)n1 [117i, N-(4-tert-butylbenzyl)-1-(3,5-dichloro-4-hydroxyphenyl)-N-(2,5,8,11,14,17,20,23-octaoxapentacosan-25-yl)-1H-1,2,4-triazole-3-carboxamide] |  |
|  | 5.67 µM | O=C(NCc1cc(F)c(F)c(F)c1)c1noc(-c2cc(Cl)c(O)c(Cl)c2)n1 [118a, 5-(3,5-dichloro-4-hydroxyphenyl)-N-(3,4,5-trifluorobenzyl)-1,2,4-oxadiazole-3-carboxamide] |  |
| 17.3 µM |  | COCCOCCOCCOCCOCCN(Cc1ccc(C(C)(C)C)cc1)C(=O)c1ncn(-c2cc(Cl)c(O)c(Cl)c2)n1 [118i, N-(4-tert-butylbenzyl)-1-(3,5-dichloro-4-hydroxyphenyl)-N-(2,5,8,11,14-pentaoxahexadecan-16-yl)-1H-1,2,4-triazole-3-carboxamide] |  |
|  | 24.1 µM | O=C(c1noc(-c2cc(Cl)c(O)c(Cl)c2)n1)N(CCNCc1ccccc1)Cc1ccccc1 [119a, N-benzyl-N-(2-(benzylamino)ethyl)-5-(3,5-dichloro-4-hydroxyphenyl)-1,2,4-oxadiazole-3-carboxamide] |  |
| 5.9 µM |  | COCCOCCOCCOCCN(Cc1ccc(C(C)(C)C)cc1)C(=O)c1ncn(-c2cc(Cl)c(O)c(Cl)c2)n1 [120i, N-(4-tert-butylbenzyl)-1-(3,5-dichloro-4-hydroxyphenyl)-N-(2,5,8,11-tetraoxatridecan-13-yl)-1H-1,2,4-triazole-3-carboxamide] |  |
|  | 19.2 µM | O=C(c1nc(-c2cc(Cl)c(O)c(Cl)c2)no1)N(CCO)Cc1ccccc1 [121a, N-benzyl-3-(3,5-dichloro-4-hydroxyphenyl)-N-(2-hydroxyethyl)-1,2,4-oxadiazole-5-carboxamide] |  |
| 12.5 µM |  | COCCOCCOCCOCCOCCOCCOCCOCCON(Cc1ccc(Oc2ccccc2)cc1)C(=O)c1ncn(-c2cc(Cl)c(O)c(Cl)c2)n1 [121i, N-(2,5,8,11,14,17,20,23-octaoxapentacosan-25-yloxy)-1-(3,5-dichloro-4-hydroxyphenyl)-N-(4-phenoxybenzyl)-1H-1,2,4-triazole-3-carboxamide] |  |
|  | 19.8 µM | O=C(c1nc(-c2cc(Br)c(O)c(Br)c2)no1)N(CCO)Cc1ccccc1 [122a, N-benzyl-3-(3,5-dibromo-4-hydroxyphenyl)-N-(2-hydroxyethyl)-1,2,4-oxadiazole-5-carboxamide] |  |
| 5.11 µM |  | COCCOCCOCCOCCON(Cc1ccc(Oc2ccccc2)cc1)C(=O)c1ncn(-c2cc(Cl)c(O)c(Cl)c2)n1 [122i, N-(2,5,8,11-tetraoxatridecan-13-yloxy)-1-(3,5-dichloro-4-hydroxyphenyl)-N-(4-phenoxybenzyl)-1H-1,2,4-triazole-3-carboxamide] |  |
|  | 16.4 µM | O=C(NCc1ccc(Cl)c(F)c1)c1nc(-c2cc(Cl)c(O)c(Cl)c2)no1 [123a, N-(4-chloro-3-fluorobenzyl)-3-(3,5-dichloro-4-hydroxyphenyl)-1,2,4-oxadiazole-5-carboxamide] |  |
| 8.44 µM |  | COCCOCCOCCON(Cc1ccc(Oc2ccccc2)cc1)C(=O)c1ncn(-c2cc(Cl)c(O)c(Cl)c2)n1 [123i, 1-(3,5-dichloro-4-hydroxyphenyl)-N-(2-(2-(2-methoxyethoxy)ethoxy)ethoxy)-N-(4-phenoxybenzyl)-1H-1,2,4-triazole-3-carboxamide] |  |
|  | 14.6 µM | O=C(NCc1ccc(C(F)(F)F)cc1F)c1nc(-c2cc(Cl)c(O)c(Cl)c2)no1 [124a, 3-(3,5-dichloro-4-hydroxyphenyl)-N-(2-fluoro-4-(trifluoromethyl)benzyl)-1,2,4-oxadiazole-5-carboxamide] |  |
|  | 6.76 µM | O=C(NCc1cccc(-c2ccccc2)c1)c1nc(-c2cc(Cl)c(O)c(Cl)c2)no1 [125a, N-(biphenyl-3-ylmethyl)-3-(3,5-dichloro-4-hydroxyphenyl)-1,2,4-oxadiazole-5-carboxamide] |  |
